Measurements published in patent US20250326722A1 (SHANGHAI HANSOH BIOMEDICAL CO., LTD., priority 2022, published 2025).

Tests used:
[1] = target: PCSK9 secreted by HepG2 cells (Homo sapiens (Human), UniProt Q8NBP7); assay: Effect on the concentration of PCSK9 secreted by HepG2 cells (ELISA); format: cell-based; settings: 48 hours incubation, read-out: Inhibitory activity on PCSK9, IC50
Description: • 1. Experimental objective: To detect the inhibitory effect of the compounds on PCSK9. • 2. Experimental instruments and reagents: • 2.1 Instruments:
• CircuLex Human PCSK9 ELISA kit (MBL: CY-8079); • DMEM (Gibco: 31966-021) • FBS (Sigma: S5394) • Compound plate (Thermo: 1353506) • Complete culture medium: DMEM+10% FBS+1×P/S; • Experimental culture medium: DMEM+10% FBS • Cell strain: HepG2 (ATCC: HB-8065)
A self-adhesive seal was applied, the plate was placed on a plate shaker at room temperature, gently shaken, uniformly mixed, and incubated for 1 hour. • 11) The plate was placed on the plate washer, the washing liquid was set to 350 μL per well, and the plate was washed 4 times repeatedly. • 12) 100 μL/well of an HRP-conjugated detection antibody was added, a self-adhesive seal was applied, and the plate was placed on the plate shaker, well mixed uniformly, and incubated for 1 hour. • 13) The plate was placed on the plate washer, the washing liquid was set to 350 μL per well, and the plate was washed 4 times repeatedly. • 14) 100 μL/well of Substrate reagent was added, and the plate was placed in the dark, applied with a self-adhesive seal, placed on the plate shaker, well mixed uniformly, and incubated for 10-20 minutes. • 15) 100 μL/well of Stop solution (1N H2SO4) was added and mixed uniformly. • 16) The optical density (OD) value in each well was measured in sequence at a wavelength of 450 nm by the microplate reader. Detection was carried out within 30 min after the reaction was stopped.
(§1) After the OD values were read by the microplate reader, the OD value of the 0-concentration standard in the standard group was subtracted from the OD values of the standards, control group, and samples to obtain the actual OD values for these wells. A standard curve was plotted with Graphpad and the concentration of the sample was calculated. If the dilution was performed during the sample detection, the calculated sample concentration was necessarily multiplied by the corresponding dilution ratio in the final calculation, which was the actual concentration of the sample. Inhibition rate=(actual concentration in control-actual concentration in sample)/actual concentration in control*100. According to the inhibition rates corresponding to the different concentrations, IC50 was derived by Graphpad.

[2] = test system: LDLR level in HepG2 cells; assay: Effect on the LDLR level in HepG2 cells (ELISA); format: cell-based, human; design: concentration or dose not given beside the values; settings: 48 hours incubation, LDLR ELISA of lysate
Description: To detect the effect of the compounds on the LDLR protein level.
Envision (PE-Cisbio: 2105-0020), centrifuge (Eppendorf: 5810R), water purifier (THERMO: Pacific T II+Micropure), plate washer (Thermo: […] VERSA), and microplate shaker (Thermo: 88882006)
• 1) HepG2 cell strain was cultured in the complete culture medium at 37° C., 5% CO2 to 70-90% confluence. • 2) The cells were digested and resuspended in the experimental culture medium, inoculation was performed at 25,000 cells/well/200 μL in a 96-well cell culture plate, and the cells were cultured at 37° C., 5% CO2 for 20-24 hours. • 3) The culture medium was removed from the cell culture plate, and the cell culture plate was washed once by adding 200 μl of the experimental culture medium to each well. • 4) Preparation of positive control compound and compound to be tested: the positive control compound and the compound to be tested were diluted on the compound plate. • 5) The diluted compound was added to the cell culture plate at 250 μL per well and incubated at 37° C. and 5% CO2 for 48 hours. • 6) The cell culture medium was removed, the cells were washed with PBS, and 50 μL of the cell lysis buffer and the protein inhibitor were added. • 7) After centrifugation, the lysate was removed and the sample was stored for later use. • 8) Preparation of standard curve: corresponding volumes of Dilution buffer were successively added to respective standard tubes, and the standard was diluted in series by taking the corresponding volume from the original tube or the last concentration tube. • 9) Preparation of washing liquid: 10× Wash buffer was diluted into 1× with Milli-Q for later use. • 10) According to the standard curve wells and sample wells set according to a plate map, 80 μL/well of the corresponding standards and samples were added to the wells, with 2 replicate wells. A well in which no standard was added was used as a background value well. A self-adhesive seal was applied, the plate was placed on a plate shaker at room temperature, gently shaken, uniformly mixed, and incubated for 2 hours. • 11) The plate was placed on the plate washer, the washing liquid was set to 350 μL per well, and the plate was washed 4 times repeatedly. • 12) 200 μL of Human LDLR conjugate was added, a self-adhesive seal was applied, and the plate was placed on the plate shaker, well mixed uniformly, and incubated for 2 hours. • 13) The plate was placed on the plate washer, the washing liquid was set to 350 μL per well, and the plate was washed 4 times repeatedly. • 14) 200 μL/well of Substrate solution was added, and the plate was placed in the dark, applied with a self-adhesive seal, placed on the plate shaker, well mixed uniformly, and incubated for 20 minutes. • 15) 50 μL/well of Stop solution was added and mixed uniformly over 20 min. • 16) The optical density (OD) value in each well was measured in sequence at a wavelength of 450 nm by the microplate reader.
as §1, with “Concentration increase %=(actual” for “Inhibition rate=(actual”, “control*100.” for “control*100. According to the inhibition rates corresponding to the different concentrations, IC50 was derived by Graphpad.”

[3] = target: PCSK9 protein (Homo sapiens (Human), UniProt Q8NBP7); assay: Binding experiment: surface plasmon resonance (SPR) binding to PCSK9 protein
Chain of PCSK9 protein (Q8NBP7 153-692): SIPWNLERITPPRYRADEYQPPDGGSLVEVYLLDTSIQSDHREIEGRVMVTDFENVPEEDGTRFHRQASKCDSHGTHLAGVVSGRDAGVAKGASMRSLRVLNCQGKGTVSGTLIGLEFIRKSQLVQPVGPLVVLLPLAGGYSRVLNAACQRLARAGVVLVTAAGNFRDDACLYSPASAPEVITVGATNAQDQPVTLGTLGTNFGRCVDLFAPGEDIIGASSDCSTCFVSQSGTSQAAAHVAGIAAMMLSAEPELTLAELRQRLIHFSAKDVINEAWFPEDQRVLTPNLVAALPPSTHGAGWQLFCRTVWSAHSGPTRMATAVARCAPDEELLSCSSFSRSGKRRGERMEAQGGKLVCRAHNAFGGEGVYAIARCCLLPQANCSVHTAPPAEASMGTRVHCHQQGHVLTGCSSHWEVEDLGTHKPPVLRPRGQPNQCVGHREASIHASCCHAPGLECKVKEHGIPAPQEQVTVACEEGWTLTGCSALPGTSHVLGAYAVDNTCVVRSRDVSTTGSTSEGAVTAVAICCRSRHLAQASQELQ
Description: • 1. Experimental objective: To detect the action of compounds to bind PCSK9 protein by a conventional surface plasmon resonance (SPR) method.

[4] = Pharmacokinetic determination in mice (plasma); format: in vivo, C57BL/6J mice; settings: C57 mice, PO administration, 5 mpk; for AUC(0-inf) / half-life / MRT / Cmax: male, C57BL/6J, mouse, 5 mg/kg; for AUC(0-inf): read-out: Area under the curve AUC0-∞; for half-life: read-out: Half-life t1/2 (converted); for MRT: read-out: Mean residence time MRT; for Cmax: read-out: Plasma concentration Cmax
Description: C57BL/6J mice were used as test animals to study the pharmacokinetic behavior of the compounds of the present disclosure in mice (plasma) after oral and intravenous administration.
C57 mice, male, purchased from Shanghai Bk Lab Animal Co., Ltd., with animal production license number (SCXK (Shanghai) 2013-0006 NO.311620400001794).
• Preparation of oral drug: 10% Solutol HS15
10 g of Solutol HS15 solid was weighed, dissolved in 90 mL of pure water, uniformly mixed, stirred, and ultrasonically treated to form a clear solution.
The compound of the present disclosure was weighed and dissolved in this solution, uniformly shaken, and ultrasonically treated for 15 minutes to obtain a colorless clear solution with a concentration of 0.5 mg/mL. • Preparation of intravenous drug: 5% DMSO+10% Solutol HS15+85% PBS […]
3 male C57 mice were fasted overnight and then respectively administered PO at a dose of 5 mg/kg and a volume of 10 mL/kg. […]
Before and after administration of mice, 0.04 mL of blood was collected from the orbit at 0.083 (iv), 0.25, 0.5, 1, 2, 4, 8, and 24 hours, and placed in EDTA-K2 test tubes, which was centrifuged at 6000 rpm at 4° C. for 6 min to separate plasma which was stored at −80° C.; and the […] were fed 4 h after administration.
The final determination results were obtained by using an LCMS/MS method.
The main pharmacokinetic parameters were calculated using WinNonlin 6.1.

Chain of PCSK9 secreted by HepG2 cells (Q8NBP7 153-692): as above
Chain of PCSK9 secreted by HepG2 cells (Q8NBP7 31-152 partner): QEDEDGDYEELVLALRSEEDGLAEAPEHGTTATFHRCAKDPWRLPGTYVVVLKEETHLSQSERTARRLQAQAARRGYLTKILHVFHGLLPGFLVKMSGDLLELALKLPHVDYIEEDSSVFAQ

| Structure (SMILES) | IC50 [1] | LDLR expression level [2] | further results |
| --- | --- | --- | --- |
| CC(C)(C)c1ccc2c(n1)C(=O)N(c1ccc(N[C@H]3CC[C@H](Nc4nc5cc(F)ccn5n4)C3)nc1)C2 [Example 164, 2-(Tert-butyl)-6-(6-(((1S,3S)-3-((7-fluoro-[1,2,4]triazolo[1,5-a]pyridin-2-yl)amino)cyclopentyl)amino)pyridin-3-yl)-5,6-dihydro-7H-pyrrolo[3,4-b]pyridin-7-one] | 2.8 µM | 254% | – |
| Cc1nccc2c1CN(c1ccc(N[C@H]3CC[C@H](Nc4ncc(OC(F)F)cn4)C3)nc1)C2=O [Example 115, 2-(6-(((1S,3S)-3-((5-(difluoromethoxy)pyrimidin-2-yl)amino)cyclopentyl)amino)-3-yl)-4-methyl-2,3-dihydro-1H-pyrrolo[3,4-c]pyridin-1-one] | 3.8 µM | – | Kd [3]: 0.0031 µM; Time to peak tmax [4]: 0.5 h; AUC(0-inf) [4]: 20900 ng·h/mL; half-life [4]: 5.8 h; MRT [4]: 5.3 h; Cmax [4]: 4290 ng/mL |
| FC(F)Oc1cnc(N[C@H]2CC[C@H](Nc3ccc(-c4cccn5ccnc45)cn3)C2)nc1 [Example 53] | 24.1 µM | 175% | – |
| FC(F)Oc1cnc(N[C@H]2CC[C@H](Nc3ccc(-c4cccc5ccnn45)cn3)C2)nc1 [Example 52, (1S,3S)—N1-(5-(difluoromethoxy)pyrimidin-2-yl)-N3-(5-(pyrazolo[1,5-a]pyridin-7-yl)pyridin-2-yl)cyclopentane-1,3-diamine] | 11 µM | 278% | – |
| O=C1c2cccnc2CN1c1ccc(NC2CCC(Nc3ncc(OC(F)(F)F)cn3)C2)nc1 [Example 122, 6-(6-(((1S,3S)-3-((5-(trifluoromethoxy)pyrimidin-2-yl)amino)cyclopentylamino)pyridin-3-yl)-6,7-dihydro-5H-pyrrolo[3,4-b]pyridin-5-one] | 1.2 µM | – | Kd [3]: 0.0022 µM; Area under the curve AUC0-∞ [4]: 13239 ng·h/mL; Half-life t1/2 [4]: 3.2 h; Mean residence time MRT [4]: 4.5 h; Plasma concentration Cmax [4]: 2333 ng/mL; Time to peak tmax [4]: 0.5 h |
| O=c1c(-c2ccc(N[C@H]3CC[C@H](Nc4ncc(OC(F)F)cn4)C3)nc2)ccc2ccccn12 [Example 47] | 18 µM | 859% | – |
| N#Cc1cnn2c(-c3ccc(N[C@H]4CC[C@H](Nc5ncc(OC(F)F)cn5)C4)nc3)cccc12 [Example 99, 7-(6-(((1S,3S)-3-((5-(difluoromethoxy)pyrimidin-2-yl)amino)cyclopentyl)amino)-3-yl) pyrazolo[1,5-a]pyridine-3-carbonitrile] | 2.6 µM | 274% | – |
| O=C1c2cccnc2CN1c1ccc(N[C@H]2CC[C@H](Nc3ncc(C(F)(F)F)nn3)C2)nc1 [Example 145] | 24.5 µM | – | Kd [3]: 0.0032 µM; Time to peak tmax [4]: 0.5 h; AUC(0-inf) [4]: 12200 ng·h/mL; half-life [4]: 3.8 h; MRT [4]: 4.6 h; Cmax [4]: 2370 ng/mL |
| O=C1c2ccncc2CN1c1ccc(N[C@H]2CC[C@H](Nc3ncc(OC(F)F)cn3)C2)nc1 [Example 76, 2-(6-(((1S,3S)-3-((5-(difluoromethoxy)pyrimidin-2-yl)amino)cyclopentyl)amino)pyridin-3-yl)-2,3-dihydro-1H-pyrrolo[3,4-c]pyridin-1-one] | 12.1 µM | 156% | – |
| O=C1c2nc(C(F)(F)F)ccc2CN1c1ccc(N[C@H]2CC[C@H](Nc3ncc(C4CC4)nn3)C2)nc1 [Example 159, 6-(6-(((1S,3S)-3-((6-cyclopropyl-1,2,4-triazin-3-yl)amino)cyclopentyl)amino)pyridin-3-yl)-2-(trifluoromethyl)-5,6-dihydro-7H-pyrrolo[3,4-b]pyridin-7-one] | 5.9 µM | 105% | – |
| O=S1(=O)CCCCN1c1ccc(N[C@H]2CC[C@H](Nc3ncc(OC(F)F)cn3)C2)nc1 [Example 92, 2-(6-(((1S,3S)-3-((5-(difluoromethoxy)pyrimidin-2-yl)amino)cyclopentyl)amino)pyridin-3-yl)-1,4-butanesulfolactam] | 16.3 µM | 105% | – |
| Fc1cnn2c(-c3ccc(N[C@H]4CC[C@H](Nc5ncc(OC(F)F)cn5)C4)nc3)cccc12 [Example 102, (1S,3S)—N1-(5-(difluoromethoxy)pyrimidin-2-yl)-N^3-(5-(3-fluoropyrazolo[1,5-a]pyridin-7-yl)pyridin-2-yl)cyclopentane-1,3-diamine] | 6.3 µM | 215% | – |
